This note sets out measurements from US6683201B2, “Analine derivatives as OSC inhibitors” (Hoffmann-La Roche Inc., priority 2000, dated 2004).

By melting point is commonly meant the temperature, or range, at which the solid turns liquid. Turning to `CN(C)CCCCOc1ccc(N(C)S(=O)(=O)c2ccc(C(F)(F)F)cc2)cc1` [Example 14.1, N-[4-(4-Dimethylamino-butoxy)-phenyl]-N-methyl-4-trifluoromethyl-benzenesulfonamide], the melting point was 151 to 153 °C.
